Source: ChEMBL document CHEMBL5137131, “Mechanisms of Biochanin A Alleviating PM2.5 Organic Extracts-Induced EMT of A549 Cells through the PI3K/Akt Pathway” (J Nat Prod, 2022)
Active and inactive are the calls of the source. The rule behind the calls is not given here.

What was measured:
[1] = test system: A549; experiment: Inhibition of PM2.5 induced Akt phosphorylation in human A549 cells at 10 to 30 uM […]; type: functional, cell-based; conditions: dose 10-30 µM
[2] = target: T1, Serine/threonine-protein kinase AKT (Homo sapiens) (UniProt P31751+Q9Y243+P31749); experiment: Inhibition of PM2.5 induced Akt phosphorylation upregulation in human A549 cells at 10 uM by Western blot analysis relative to control; type: cell-based
[3] = test system: A549; experiment: Inhibition of cell invasion in PM2.5 induced human A549 cells assessed as number of cell perforation at 20 uM measured after 24 hrs by Giemsa staining based transwell assay (reference value: 93 +/- 4.04%); type: functional; set-up: scale not given: the % may be the effect or the level left
[4] = test system: A549; experiment: Downregulation of PM2.5 induced MMP-9 activation in human A549 cells at 10 uM by ELISA; type: functional, cell-based
[5] = test system: A549; experiment: Inhibition of cell migration in PM2.5 induced human A549 assessed as relative migration length at 30 uM incubated for 24 hr by wound healing assay (reference value: 0.363 micrometer); type: functional
[6] = test system: A549; experiment: Inhibition of cell migration in PM2.5 induced human A549 at 30 uM incubated for 24 hrs by wound healing assay relative to control; type: functional
[7] = test system: A549; experiment: Inhibition of cell migration in PM2.5 induced human A549 assessed as scratch migration length at 20 uM incubated for 24 hr by wound healing assay (reference value: 1.757 +/- 0.094 micrometer); type: functional
[8] = test system: A549; experiment: Downregulation of PM2.5 induced vimentin mRNA expression in human A549 cells at 10 uM by qRT-PCR analysis relative to control; type: functional
[9] = test system: A549; experiment: Inhibition of cell invasion in PM2.5 induced human A549 cells assessed as reduction in cell invasiveness at 30 uM measured after 24 hrs by Giemsa staining based transwell assay relative to control; type: functional; set-up: scale not given: the % may be the effect or the level left
[10] = test system: A549; experiment: Downregulation of PM2.5 induced fibronectin mRNA level in human A549 cells at 20 uM by qRT-PCR analysis; type: functional, cell-based
[11] = test system: A549; experiment: Inhibition of cell invasion in PM2.5 induced human A549 cells assessed as reduction in cell invasiveness at 20 uM measured after 24 hrs by Giemsa staining based transwell assay relative to control; type: functional; set-up: scale not given: the % may be the effect or the level left
[12] = test system: A549; experiment: Inhibition of PM2.5 induced PI3K expression in human A549 cells at 10 to 30 uM by qRT-PCR analysis; type: functional, cell-based; conditions: dose 10-30 µM
[13] = test system: A549; experiment: Inhibition of PM2.5 induced TGF-beta1 secretion in human A549 cells at 20 uM by ELISA relative to control; type: functional
[14] = test system: A549; experiment: Inhibition of PM2.5 induced TGF-beta1 secretion in human A549 cells at 10 uM by ELISA relative to control; type: functional
[15] = test system: A549; experiment: Inhibition of PM2.5 induced PI3K upregulation in human A549 cells at 20 uM by Western blot analysis relative to control; type: functional
[16] = test system: A549; experiment: Inhibition of cell migration in PM2.5 induced human A549 assessed as relative migration rate at 30 uM incubated for 24 hr by wound healing assay (reference value: 129%); type: functional; set-up: scale not given: the % may be the effect or the level left
[17] = test system: A549; experiment: Inhibition of cell migration in PM2.5 induced human A549 assessed as relative migration length at 20 uM incubated for 24 hr by wound healing assay (reference value: 0.363 micrometer); type: functional
[18] = test system: A549; experiment: Downregulation of PM2.5 induced fibronectin mRNA level in human A549 cells at 10 uM by qRT-PCR analysis; type: functional, cell-based
[19] = test system: A549; experiment: Inhibition of cell migration in PM2.5 induced human A549 assessed as scratch migration length at 10 uM incubated for 0 hr by wound healing assay (reference value: 2.120 +/- 0.132 micrometer); type: functional
[20] = target: T1, Serine/threonine-protein kinase AKT (Homo sapiens); experiment: Inhibition of PM2.5 induced Akt phosphorylation upregulation in human A549 cells at 30 uM by Western blot analysis relative to control; type: cell-based
[21] = test system: A549; experiment: Downregulation of PM2.5 induced fibronectin mRNA level in human A549 cells at 30 uM by qRT-PCR analysis; type: functional, cell-based
[22] = test system: A549; experiment: Downregulation of PM2.5 induced MMP-2 activation in human A549 cells at 10 uM by ELISA; type: functional, cell-based
[23] = test system: A549; experiment: Inhibition of cell migration in PM2.5 induced human A549 assessed as scratch migration length at 20 uM incubated for 0 hr by wound healing assay (reference value: 2.120 +/- 0.132 micrometer); type: functional
[24] = test system: A549; experiment: Reversal of PM2.5 induced EMT in human A549 cells at 10 uM by ELISA; type: functional, cell-based
[25] = test system: A549; experiment: Inhibition of PM2.5 induced PI3K/Akt activation assessed as inhibition of Snail expression in human A549 cells at 10 to 20 uM; type: cell-based; conditions: dose 10-20 µM
[26] = test system: A549; experiment: Inhibition of PM2.5 induced PI3K/Akt activation assessed as inhibition of Twist expression in human A549 cells at 10 to 20 uM; type: cell-based; conditions: dose 10-20 µM
[27] = test system: A549; experiment: Downregulation of PM2.5 induced N-cadherin mRNA level in human A549 cells at 10 uM by qRT-PCR analysis relative to control; type: functional
[28] = test system: A549; experiment: Upregulation of PM2.5 induced E-cadherin expression in human A549 cells at 30 uM by Western blot analysis; type: functional, cell-based
[29] = test system: A549; experiment: Upregulation of PM2.5 induced mRNA expression in human A549 cells at 20 uM by qRT-PCR analysis; type: functional, cell-based
[30] = test system: A549; experiment: Downregulation of PM2.5 induced N-cadherin mRNA level in human A549 cells at 20 uM by qRT-PCR analysis relative to control; type: functional
[31] = test system: A549; experiment: Downregulation of PM2.5 induced vimentin expression in human A549 cells at 10 to 30 uM by Western blot analysis relative to control; type: functional; conditions: dose 10-30 µM
[32] = test system: A549; experiment: Inhibition of cell migration in PM2.5 induced human A549 assessed as relative migration rate at 10 uM incubated for 24 hr by wound healing assay (reference value: 129%); type: functional; set-up: scale not given: the % may be the effect or the level left
[33] = test system: A549; experiment: Protection against PM2.5 induced human A549 cells injury assessed as reduction in PM2.5 induced cell proliferation inhibition at 10 to 30 uM measured at 24 hrs by CCK-8 analysis; type: functional, cell-based; conditions: dose 10-30 µM
[34] = test system: A549; experiment: Inhibition of cell migration in PM2.5 induced human A549 assessed as scratch migration length at 10 uM incubated for 24 hr by wound healing assay (reference value: 1.757 +/- 0.094 micrometer); type: functional
[35] = test system: A549; experiment: Inhibition of PM2.5 induced TGF-beta1 secretion in human A549 cells at 30 uM by ELISA relative to control; type: functional
[36] = test system: A549; experiment: Inhibition of PM2.5 induced PI3K/Akt activation assessed as inhibition of Slug expression in human A549 cells at 10 to 20 uM; type: cell-based; conditions: dose 10-20 µM
[37] = test system: A549; experiment: Upregulation of PM2.5 induced E-cadherin mRNA expression in human A549 cells at 10 uM by qRT-PCR analysis; type: functional, cell-based
[38] = test system: A549; experiment: Downregulation of PM2.5 induced vimentin mRNA expression in human A549 cells at 20 uM by qRT-PCR analysis relative to control; type: functional
[39] = test system: A549; experiment: Inhibition of cell migration in PM2.5 induced human A549 assessed as relative migration length at 10 uM incubated for 24 hr by wound healing assay (reference value: 0.363 micrometer); type: functional
[40] = target: T1, Serine/threonine-protein kinase AKT (Homo sapiens); experiment: Inhibition of PM2.5 induced Akt phosphorylation upregulation in human A549 cells at 20 uM by Western blot analysis relative to control; type: cell-based
[41] = test system: A549; experiment: Inhibition of cell migration in PM2.5 induced human A549 assessed as relative migration rate at 20 uM incubated for 24 hr by wound healing assay (reference value: 129%); type: functional; set-up: scale not given: the % may be the effect or the level left
[42] = test system: A549; experiment: Inhibition of PM2.5 induced PI3K upregulation in human A549 cells at 30 uM by Western blot analysis relative to control; type: functional
[43] = test system: A549; experiment: Downregulation of PM2.5 induced CXCL12 expression in human A549 cells at 20 uM by ELISA relative to control; type: functional
[44] = test system: A549; experiment: Inhibition of cell invasion in PM2.5 induced human A549 cells assessed as number of cell perforation at 10 uM measured after 24 hrs by Giemsa staining based transwell assay (reference value: 93 +/- 4.04%); type: functional; set-up: scale not given: the % may be the effect or the level left
[45] = test system: A549; experiment: Downregulation of PM2.5 induced vimentin mRNA expression in human A549 cells at 30 uM by qRT-PCR analysis relative to control; type: functional
[46] = test system: A549; experiment: Inhibition of cell invasion in PM2.5 induced human A549 cells assessed as number of cell perforation at 30 uM measured after 24 hrs by Giemsa staining based transwell assay (reference value: 93 +/- 4.04%); type: functional; set-up: scale not given: the % may be the effect or the level left
[47] = test system: A549; experiment: Cytotoxicity against human A549 cells assessed as reduction in cell viability at 1.5625 to 25 uM incubated for 48 hrs by CCK-8 assay; type: toxicity, cell-based; conditions: a549, 48 h, dose 1.5625-25 µM
[48] = test system: A549; experiment: Protection against PM2.5 induced human A549 cells morphological change assessed as reduction in number of mesenchymal morphogenetic cells at 10 to 30 uM measured after 48 hrs by microscopic analysis; type: functional, cell-based; conditions: dose 10-30 µM
[49] = test system: A549; experiment: Inhibition of cell migration in PM2.5 induced human A549 assessed as scratch migration length at 30 uM incubated for 0 hr by wound healing assay (reference value: 2.120 +/- 0.132 micrometer); type: functional
[50] = test system: A549; experiment: Cytotoxicity against human A549 cells assessed as reduction in cell viability at 200 uM incubated for 48 hrs by CCK-8 assay relative to control; type: toxicity, cell-based; conditions: a549, 48 h
[51] = test system: A549; experiment: Downregulation of PM2.5 induced CXCL12 expression in human A549 cells at 10 uM by ELISA relative to control; type: functional
[52] = test system: A549; experiment: Inhibition of cell migration in PM2.5 induced human A549 assessed as scratch migration length at 30 uM incubated for 24 hr by wound healing assay (reference value: 1.757 +/- 0.094 micrometer); type: functional

T1 sequence (P31749 whole entry, looked up): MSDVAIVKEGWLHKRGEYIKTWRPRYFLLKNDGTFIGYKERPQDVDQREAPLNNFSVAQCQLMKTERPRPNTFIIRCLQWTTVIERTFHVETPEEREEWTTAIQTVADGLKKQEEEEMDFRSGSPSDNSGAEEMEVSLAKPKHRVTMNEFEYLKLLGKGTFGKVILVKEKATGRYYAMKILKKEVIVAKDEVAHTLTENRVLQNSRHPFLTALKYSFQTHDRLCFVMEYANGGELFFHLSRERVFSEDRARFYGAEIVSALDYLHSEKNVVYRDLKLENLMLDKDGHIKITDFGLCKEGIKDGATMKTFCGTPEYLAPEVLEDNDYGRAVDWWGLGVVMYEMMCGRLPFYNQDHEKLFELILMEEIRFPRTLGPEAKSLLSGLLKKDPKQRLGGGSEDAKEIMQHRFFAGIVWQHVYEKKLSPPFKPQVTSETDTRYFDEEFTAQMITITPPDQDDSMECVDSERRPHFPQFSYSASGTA
T1 sequence (P31751 whole entry, looked up): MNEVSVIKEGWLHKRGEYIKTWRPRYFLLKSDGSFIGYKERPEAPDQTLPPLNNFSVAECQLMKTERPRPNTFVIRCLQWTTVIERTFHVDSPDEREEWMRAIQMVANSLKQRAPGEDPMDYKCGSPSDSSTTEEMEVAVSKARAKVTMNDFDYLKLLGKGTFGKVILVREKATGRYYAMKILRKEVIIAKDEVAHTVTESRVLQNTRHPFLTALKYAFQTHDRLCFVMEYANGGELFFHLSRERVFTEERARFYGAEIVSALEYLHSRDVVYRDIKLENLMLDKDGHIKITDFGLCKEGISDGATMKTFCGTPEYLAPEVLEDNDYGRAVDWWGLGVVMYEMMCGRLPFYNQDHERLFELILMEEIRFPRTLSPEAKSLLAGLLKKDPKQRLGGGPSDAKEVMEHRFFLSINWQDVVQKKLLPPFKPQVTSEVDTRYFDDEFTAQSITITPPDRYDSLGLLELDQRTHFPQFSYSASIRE
T1 sequence (Q9Y243 whole entry, looked up): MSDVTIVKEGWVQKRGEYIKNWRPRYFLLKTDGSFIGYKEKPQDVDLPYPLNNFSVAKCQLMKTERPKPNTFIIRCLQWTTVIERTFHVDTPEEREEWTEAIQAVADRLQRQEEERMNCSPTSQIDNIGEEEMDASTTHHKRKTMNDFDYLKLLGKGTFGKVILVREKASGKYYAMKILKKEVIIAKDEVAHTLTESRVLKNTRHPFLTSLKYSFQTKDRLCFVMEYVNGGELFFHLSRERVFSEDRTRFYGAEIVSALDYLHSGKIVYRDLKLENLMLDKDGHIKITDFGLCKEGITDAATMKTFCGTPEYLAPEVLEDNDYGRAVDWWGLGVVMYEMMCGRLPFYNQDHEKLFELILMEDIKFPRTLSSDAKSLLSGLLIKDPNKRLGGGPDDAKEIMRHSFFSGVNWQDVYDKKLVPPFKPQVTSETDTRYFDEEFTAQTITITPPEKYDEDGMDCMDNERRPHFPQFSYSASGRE

COc1ccc(-c2coc3cc(O)cc(O)c3c2=O)cc1 [BIOCHANIN]
inhibition [1]: Active | inhibition [2]: 30% | Activity [3]: 61.3% | Activity [4]: Active | Activity [5]: 0.302 um | inhibition at 30 µM [6]: 22% | Activity [7]: 1.451 um | Activity [8]: 76% | Activity [9]: 44.1% | Activity [10]: Active | Activity [11]: 34.09% | inhibition [12]: Active | inhibition at 20 µM [13]: 13.1% | inhibition at 10 µM [14]: 16.2% | inhibition at 20 µM [15]: 50% | Activity [16]: 107% | Activity [17]: 0.481 um | Activity [18]: Active | Activity [19]: 1.973 um | inhibition [20]: 17.1% | Activity [21]: Active | Activity [22]: Active | Activity [23]: 1.932 um | Activity [24]: Active | inhibition [25]: Active | inhibition [26]: Active | Activity [27]: 67% | Activity [28]: Active | Activity [29]: Active | Activity [30]: 79% | Activity [31]: 45% | Activity [32]: 144% | Activity [33]: Active | Activity [34]: 1.568 um | inhibition at 30 µM [35]: 24.8% | inhibition [36]: Active | Activity [37]: Active | Activity [38]: 48% | Activity [39]: 0.405 um | inhibition [40]: 73.6% | Activity [41]: 171% | inhibition at 30 µM [42]: 63.3% | Activity [43]: 20% | Activity [44]: 92% | Activity [45]: 78% | Activity [46]: 52% | Activity [47]: Non-Toxic | Activity [48]: Active | Activity [49]: 1.854 um | Activity [50]: 19% | Activity [51]: 17% | Activity [52]: 1.552 um
